In the test the target is ROCK2 (Homo sapiens, UniProt O75116). The test can be described thus: ROCK kinase inhibition assay, FITC peptide substrate, LABCHIP 3000 readout. It is filed as biochemical. As to conditions: 5 μM ATP, 1.5 μM peptide substrate. Put shortly:
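Tested across a concentration range, with percent inhibition of kinase activity derived per concentration. Peptide phosphorylation, initiated by adding the Rho kinase variant (final DMSO <2%), was quenched with EDTA and substrate/product resolved by mobility shift.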

Usually IC50 stands for the concentration at which inhibition is half-maximal. Low readings indicate greater potency in that assay, high ones weaker potency in that assay.

The structures appear in SMILES notation.

Sequence of ROCK2 (O75116 whole entry, species assumed): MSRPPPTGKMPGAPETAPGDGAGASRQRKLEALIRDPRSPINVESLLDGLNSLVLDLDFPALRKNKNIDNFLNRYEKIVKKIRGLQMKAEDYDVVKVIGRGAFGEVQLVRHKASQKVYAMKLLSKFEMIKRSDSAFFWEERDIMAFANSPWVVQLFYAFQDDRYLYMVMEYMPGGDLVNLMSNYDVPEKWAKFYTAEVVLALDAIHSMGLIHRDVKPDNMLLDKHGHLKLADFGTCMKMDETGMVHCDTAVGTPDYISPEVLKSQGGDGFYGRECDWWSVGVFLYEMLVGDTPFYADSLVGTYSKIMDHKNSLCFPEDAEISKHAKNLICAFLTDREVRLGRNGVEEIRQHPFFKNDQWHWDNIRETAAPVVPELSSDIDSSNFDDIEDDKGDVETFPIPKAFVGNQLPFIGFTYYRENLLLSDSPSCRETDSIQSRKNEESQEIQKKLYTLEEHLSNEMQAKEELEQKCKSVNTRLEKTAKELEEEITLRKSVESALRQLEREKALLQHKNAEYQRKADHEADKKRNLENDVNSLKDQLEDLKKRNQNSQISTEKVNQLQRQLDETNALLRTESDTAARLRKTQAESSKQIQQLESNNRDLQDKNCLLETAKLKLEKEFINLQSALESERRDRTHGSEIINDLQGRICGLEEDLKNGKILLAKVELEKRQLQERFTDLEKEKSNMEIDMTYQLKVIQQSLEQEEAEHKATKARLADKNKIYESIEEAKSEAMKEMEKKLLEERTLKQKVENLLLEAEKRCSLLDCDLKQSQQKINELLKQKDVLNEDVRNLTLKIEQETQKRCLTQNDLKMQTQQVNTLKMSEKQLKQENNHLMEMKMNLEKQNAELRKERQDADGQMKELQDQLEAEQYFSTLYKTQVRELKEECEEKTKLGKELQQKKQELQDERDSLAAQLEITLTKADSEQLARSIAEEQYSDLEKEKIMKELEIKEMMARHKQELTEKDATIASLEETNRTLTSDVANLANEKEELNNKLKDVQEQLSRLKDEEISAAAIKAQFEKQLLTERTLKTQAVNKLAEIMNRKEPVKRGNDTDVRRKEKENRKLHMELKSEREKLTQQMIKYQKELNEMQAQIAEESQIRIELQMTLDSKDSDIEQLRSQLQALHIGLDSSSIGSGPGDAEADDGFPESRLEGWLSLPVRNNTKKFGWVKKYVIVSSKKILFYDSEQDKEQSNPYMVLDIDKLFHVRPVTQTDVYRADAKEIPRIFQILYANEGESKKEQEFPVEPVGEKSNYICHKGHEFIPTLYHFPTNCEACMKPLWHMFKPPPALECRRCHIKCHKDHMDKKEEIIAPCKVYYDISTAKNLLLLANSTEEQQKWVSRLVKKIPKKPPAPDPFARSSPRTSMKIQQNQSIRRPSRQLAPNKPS

The molecule `COc1cc(N2CCC3(CCN(C(=O)c4ccc(N5CCN(C(=O)OC(C)(C)C)CC5)cc4)CC3)C2=O)ccc1-c1cn[nH]c1` [Example 205, tert-butyl 4-(4-{2-[3-methoxy-4-(1H-pyrazol-4-yl)phenyl]-1-oxo-2,8-diazaspiro[4.5]decane-8-carbonyl}phenyl)piperazine-1-carboxylate] returned an IC50 of 0.0089 µM.

As for `COc1cc(N2CCC3(CCN(C(=O)C4CCN(S(C)(=O)=O)CC4)CC3)C2=O)ccc1-c1cn[nH]c1` [Example 154, 8-(1-methanesulfonylpiperidine-4-carbonyl)-2-[3-methoxy-4-(1H-pyrazol-4-yl)phenyl]-2,8-diazaspiro[4.5]decan-1-one], the IC50 amounted to 2 µM.

Consider `COc1cc(N2CCC3(CCN(C(=O)c4ccc5c(cnn5C)c4)CC3)C2=O)ccc1-c1cn[nH]c1` [Example 152, 2-[3-methoxy-4-(1H-pyrazol-4-yl)phenyl]-8-(1-methyl-1H-indazole-5-carbonyl)-2,8-diazaspiro[4.5]decan-1-one], for which the midpoint of inhibition, the IC50, lay at 0.0062 µM.

Take `COc1cc(N2CCC3(CCN(C(=O)c4cccn4C)CC3)C2=O)ccc1-c1cn[nH]c1` [Example 62, 2-[3-methoxy-4-(1H-pyrazol-4-yl)phenyl]-8-(1-methyl-1H-pyrrole-2 carbonyl)-2,8-diazaspiro[4.5]decan-1-one]: the IC50 was found to be 1.43 µM.

In turn, `COc1cc(N2CCC3(CCN(C(=O)c4ccc(N5CCN(Cc6ccccc6Cl)CC5)cc4)CC3)C2=O)ccc1-c1cn[nH]c1` [Example 223, 8-(4-{4-[(2-chlorophenyl)methyl]piperazin-1-yl}benzoyl)-2-[3-methoxy-4-(1H-pyrazol-4-yl)phenyl]-2,8-diazaspiro[4.5]decan-1-one] displayed an IC50 of 0.0011 µM.

`COC(=O)c1ccc(C(=O)N2CCC3(CC2)CCN(c2ccc(-c4cn[nH]c4)c(OC)c2)C3=O)cc1` [Example 24, methyl 4-{2-[3-methoxy-4-(1H-pyrazol-4-yl)phenyl]-1-oxo-2,8-diazaspiro[4.5]decane-8-carbonyl}benzoate] had an IC50 of 0.023 µM.

In turn, `COc1cc(F)c(C(=O)N2CCC3(CC2)CCN(c2ccc(-c4cn[nH]c4)c(OC)c2)C3=O)c(F)c1` [Example 28, 8-(2,6-difluoro-4-methoxybenzoyl)-2-[3-methoxy-4-(1H-pyrazol-4-yl)phenyl]-2,8-diazaspiro[4.5]decan-1-one] had an IC50 of 0.005 µM.

For the molecule `COc1cc(N2CCC3(CCN(C(=O)c4ccc(-c5cnco5)cc4)CC3)C2=O)ccc1-c1cn[nH]c1` [Example 160, 2-[3-methoxy-4-(1H-pyrazol-4-yl)phenyl]-8-[4-(1,3-oxazol-5-yl)benzoyl]-2,8-diazaspiro[4.5]decan-1-one], 0.023 µM corresponded to half-maximal inhibition (IC50).

For the molecule `COc1cc(N2CCC3(CCN(C(=O)c4ccc(N5CCN(CCC(C)(C)C)CC5)cc4)CC3)C2=O)ccc1-c1cn[nH]c1` [Example 231, 8-{4-[4-(3,3-dimethylbutyl)piperazin-1-yl]benzoyl}-2-[3-methoxy-4-(1H-pyrazol-4-yl)phenyl]-2,8-diazaspiro[4.5]decan-1-one], the IC50 worked out at 0.0022 µM.

On to `COc1cc(N2CCC3(CCN(C(=O)c4cccs4)CC3)C2=O)ccc1-c1cn[nH]c1` [Example 89, 2-[3-methoxy-4-(1H-pyrazol-4-yl)phenyl]-8-(thiophene-2-carbonyl)-2,8-diazaspiro[4.5]decan-1-one], for which the IC50 is 0.117 µM.

Molecule `COc1cc(N2CCC3(CCN(C(=O)c4ccc(N5CCN(CC(c6ccccc6)c6ccccc6)CC5)cc4)CC3)C2=O)ccc1-c1cn[nH]c1` [Example 222, 8-{4-[4-(2,2-diphenylethyl)piperazin-1-yl]benzoyl}-2-[3-methoxy-4-(1H-pyrazol-4-yl)phenyl]-2,8-diazaspiro[4.5]decan-1-one] came in with an IC50 of 0.0093 µM.

Molecule `COc1cc(N2CCC3(CCN(C(=O)c4ccc(CO)cc4)CC3)C2=O)ccc1-c1cn[nH]c1` [Example 15, 8-[4-(hydroxymethyl)benzoyl]-2-[3-methoxy-4-(1H-pyrazol-4-yl)phenyl]-2,8-diazaspiro[4.5]decan-1-one] gave an IC50 of 0.053 µM.

On to `COc1cc(N2CCC3(CCN(C(=O)c4cnn5cccnc45)CC3)C2=O)ccc1-c1cn[nH]c1` [Example 198, 2-[3-methoxy-4-(1H-pyrazol-4-yl)phenyl]-8-{pyrazolo[1,5-a]pyrimidine-3-carbonyl}-2,8-diazaspiro[4.5]decan-1-one], for which the IC50 is 1.06 µM.

Molecule `COc1cc(N2CCC3(CCN(C(=O)c4ccc5c(c4)CNC5=O)CC3)C2=O)ccc1-c1cn[nH]c1` [Example 144, 2-[3-methoxy-4-(1H-pyrazol-4-yl)phenyl]-8-(1-oxo-2,3-dihydro-1H-isoindole-5-carbonyl)-2,8-diazaspiro[4.5]decan-1-one] displayed a concentration for half-maximal inhibition (IC50) of 0.094 µM.

Molecule `CN1CCN(c2ccc(C(=O)N3CCC4(CC3)CCN(c3ccc(-c5ccc6[nH]ncc6c5)cc3)C4=O)cc2)CC1` [Example 37, 2-[4-(1H-indazol-5-yl)phenyl]-8-[4-(4-methylpiperazin-1-yl)benzoyl]-2,8-diazaspiro[4.5]decan-1-one] returned an IC50 of 0.0005 µM.

`COc1ccc(C(=O)N2CCC3(CC2)CCN(c2cccc(-c4ccc5[nH]ncc5c4)c2)C3=O)cc1` [Example 52, 2-[3-(1H-indazol-5-yl)phenyl]-8-(4-methoxybenzoyl)-2,8-diazaspiro[4.5]decan-1-one] gave an IC50 of 1.87 µM.

The molecule `COc1cc(N2CCC3(CCN(C(=O)c4ccc(-c5noc(C(C)C)n5)cc4)CC3)C2=O)ccc1-c1cn[nH]c1` [Example 134, 2-[3-methoxy-4-(1H-pyrazol-4-yl)phenyl]-8-{4-[5-(propan-2-yl)-1,2,4-oxadiazol-3-yl]benzoyl}-2,8-diazaspiro[4.5]decan-1-one] returned an IC50 of 0.075 µM.

Turning to `COc1cc(N2CCC3(CCN(C(=O)c4cccnc4)CC3)C2=O)ccc1-c1cn[nH]c1` [Example 73, 2-[3-methoxy-4-(1H-pyrazol-4-yl)phenyl]-8-(pyridine-3-carbonyl)-2,8-diazaspiro[4.5]decan-1-one], the IC50 worked out at 0.414 µM.

`COc1cc(N2CCC3(CCN(C(=O)c4ccc(N5CCN(C6CCN(C)CC6)CC5)cc4)CC3)C2=O)ccc1-c1cn[nH]c1` [Example 244, 2-[3-methoxy-4-(1H-pyrazol-4-yl)phenyl]-8-{4-[4-(1-methylpiperidin-4-yl)piperazin-1-yl]benzoyl}-2,8-diazaspiro[4.5]decan-1-one] had an IC50 of 0.0009 µM.

Molecule `CCc1ccc(C(=O)N2CCC3(CC2)CCN(c2ccc(-c4cn[nH]c4)c(OC)c2)C3=O)nc1` [Example 108, 8-(5-ethylpyridine-2-carbonyl)-2-[3-methoxy-4-(1H-pyrazol-4-yl)phenyl]-2,8-diazaspiro[4.5]decan-1-one] had an IC50 of 0.012 µM.

Molecule `COc1cc(N2CCC3(CCN(C(=O)[C@@H]4C[C@H]4c4ccccc4)CC3)C2=O)ccc1-c1cn[nH]c1` [Example 91, 2-[3-methoxy-4-(1H-pyrazol-4-yl)phenyl]-8-[(1R,2R)-2-phenylcyclopropanecarbonyl]-2,8-diazaspiro[4.5]decan-1-one] displayed an IC50 of 0.436 µM.

For `COc1cc(N2CCC3(CCN(C(=O)c4cscn4)CC3)C2=O)ccc1-c1cn[nH]c1` [Example 86, 2-[3-methoxy-4-(1H-pyrazol-4-yl)phenyl]-8-(1,3-thiazole-4-carbonyl)-2,8-diazaspiro[4.5]decan-1-one], the IC50 amounted to 0.443 µM.

The record behind these values is US11192891B2, “Diazaspiro ROCK inhibitors” (BRISTOL-MYERS SQUIBB COMPANY, priority 2017, dated 2021).
